According to patent US8158623B2, “Heptacyclic compounds and the pharmaceutical uses thereof for preventing and treating diabetes and metabolic syndrome” (Shanghai Institute of Materia Medica Chinese Academy of …, priority 2007, dated 2012):

What was measured:
ob/ob mice [1] = experiment: Hypoglycemic effect of the combination of F7 with Glibenclamide; type: in vivo; conditions: Glibenclamide 25 mg/kg oral, with or without F7 50 mg/kg oral pretreatment for 10 days
Experimental: (§1) Genetic spontaneous diabetes ob/ob mice were purchased from Jackson (USA), and maintained in a SPF facility (temperature: 22-24° C., humidity: 45-80%, illumination: 150-300 Lx, 12/12-hour light/dark cycle). Fasting blood glucose was determined daily for 3 days continuously when the mice were 7 weeks old. The mice were grouped into the pretreatment group of Compound F7 and non-pretreatment group (16 animals per group) according to the results determined. The groups were administered orally with compound F7 (50 mg/kg) or a solution of 0.1% Tween 80 respectively, once daily for 10 days. The pretreatment group and the non-pretreatment group were divided into two subsets (8 animals per subset) respectively, and subcutaneously injected with insulin (0.6 U/kg) or orally administered with Glibenclamide (25 mg/kg) respectively. Then, blood glucose levels were measured at different time points and the percentage of change in blood glucose level was calculated.

ob/ob mice [2] = experiment: Hypoglycemic effect of the combination of F7 with insulin; type: in vivo; conditions: insulin 0.6 U/kg s.c., with or without F7 50 mg/kg oral pretreatment for 10 days
Experimental: as §1

## COc1ccc(Cl)cc1C(=O)NCCc1ccc(S(=O)(=O)NC(=O)NC2CCCCC2)cc1 [Glibenclamide]
ob/ob mice [1]; 1 h
  The percentage of change in blood glucose level: 90.2 ± 7.3%
ob/ob mice [1]; 2 h
  The percentage of change in blood glucose level: 76.7 ± 10.2%
ob/ob mice [1]; 3 h
  The percentage of change in blood glucose level: 68.0 ± 7.3%

## Insulin
ob/ob mice [2]; 15 minutes
  The percentage of change in blood glucose level: 113.9 ± 8.3%
ob/ob mice [2]; 40 minutes
  The percentage of change in blood glucose level: 96.3 ± 18.0%
ob/ob mice [2]; 90 minutes
  The percentage of change in blood glucose level: 90.6 ± 14.7%
ob/ob mice [2]; 120 minutes
  The percentage of change in blood glucose level: 101.6 ± 11.2%
